From patent publication US3984432A, “Color photographic recording material” (priority 1973, dated 1976)

Assay: Absorption maximum after colour development in a photographic silver halide layer according to Use Example I
Format: physicochemical
Settings: for Abs.max., first of two maxima (subsidiary maximum) / Abs.max., second of two maxima (absorption maximum): pyrazolone coupling agents
Protocol: The compounds of the formulae which follow are prepared according to methods which are in themselves known, from the corresponding 4-equivalentcoupling agents (the corresponding compounds with hydrogen in the position marked with *, in place of the substituents drawn). With regard to methods of manufacture, compare DT-OS or DT-AS 1,236,332, 2,043,271, 1,547,672 or 1,187,477. Next to the formula, the absorption maximum in nm is specified in each case (see footnote to Table I). ##SPC8##
*)After colour development of the coupling agents in a photographic silve
halide layer according to Use Example I
0.3 mmol of coupling agent of the formula (215) is dissolved in 2.0 ml of tricresyl phosphate/methylene chloride (3:7). The methylene chloride is evaporated off, 6.0 ml of an 8% strength aqueous solution of sodium isopropylnaphthalene-sulphonate, 20.0 ml of 6% strength gelatine solution and 3.4 ml of water are added and the mixture is adjusted to pH 6.5 and emulsified for 5 minutes by means of an ultrasonic apparatus with an output of 100 watt.
5.0 of coupling agent emulsion freshly treated with ultrasonics, 3.3 ml of silver bromide emulsion of pH 6.5, containing 1.4% of silver and 6.0% of gelatine, 2.0 ml of 1% strength aqueous solution of the hardener of the formula [formula] and 1.7 ml of water are mixed with one another and cast at 40°C on a substrated glass plate of size 13 cm × 18 cm. After solidifying at 10° C, the plate is dried in a drying cabinet with circulating air at 32° C.
A strip cut to 4.0 cm × 6.5 cm is exposed to 500 Lux/cm^2 under a step wedge for 2 seconds and is subsequently treated at 24° C as follows: […]

SMILES | Abs.max., first of two maxima (subsidiary maximum) [nm] | Abs.max., second of two maxima (absorption maximum) [nm] | Abs.max. (single maximum) [nm]
CCOP(=O)(CCCOc1ccc(NC2=NN(c3ccccc3)C(=O)C2)cc1)OCC [(405)] | 428 | 526 | –
CCCCOP(=O)(CCCOc1cc(OCCCP(=O)(OCCCC)OCCCC)cc(C(=O)Nc2cccc(C(=O)NC3=NN(c4c(C)cc(Cl)cc4Cl)C(=O)C3)c2)c1)OCCCC [(272)] | 438 | 540 | –
CCCCC(CC)COP(=O)(CCNC(=O)c1ccc(Cl)c(NC(=O)CC(=O)c2ccc(OC)cc2)c1)OCC(CC)CCCC (centres unmarked) [(134)] | – | – | 447
CCOP(=O)(CCCOc1cccc(C(=O)Nc2cccc(NC3=NN(c4ccccc4)C(=O)C3)c2)c1)OCC [(414)] | 430 | 530 | –
CCCCOP(=O)(CCCOc1cc(OCCCP(=O)(OCCCC)OCCCC)cc(C(=O)Nc2ccc(NC(=O)CC(=O)C(C)(C)C)cc2)c1)OCCCC [(114)] | – | – | 431
CC(C)OP(=O)(CCCCCOc1cc(OCCCCCP(=O)(OC(C)C)OC(C)C)cc(C(=O)Nc2cccc(C(=O)NC3=NN(c4ccccc4)C(=O)C3)c2)c1)OC(C)C [(239)] | 440 | 532 | –
CCOP(=O)(CCCc1ccc(NC2=NN(c3cccc(Cl)c3)C(=O)C2)cc1)OCC [(410)] | 438 | 532 | –
CC(C)(C)P(=O)(Oc1ccccc1)Oc1ccc(NC(=O)CC(=O)c2ccccc2)cc1 (centres unmarked) [(129)] | – | – | 440
CCCCC(CC)COP(=O)(CCCOc1cccc(C(=O)Nc2ccc(C(=O)NC3=NN(c4c(Cl)cc(Cl)cc4Cl)C(=O)C3)cc2)c1)OCC(CC)CCCC (centres unmarked) [(215)] | 434 | 540 | –
CCOP(=O)(CCCOc1ccc(NC2=NN(c3cccc(Cl)c3)C(=O)C2)cc1)OCC [(406)] | 425 | 530 | –
CCCCC(CC)COP(=O)(CCCOc1cccc(C(=O)Nc2cccc(NC3=NN(c4ccccc4)C(=O)C3)c2)c1)OCC(CC)CCCC (centres unmarked) [(421)] | 430 | 528 | –
CCCCOP(=O)(CCCOc1cc(OCCCP(=O)(OCCCC)OCCCC)cc(C(=O)Nc2ccc(Cl)c(NC3=NN(c4c(Cl)cc(Cl)cc4Cl)C(=O)C3)c2)c1)OCCCC [(428)] | 430 | 537 | –
CCOP(=O)(CCCOc1cc(OCCCP(=O)(OCC)OCC)cc(C(=O)Nc2cccc(C(=O)NC3=NN(c4c(Cl)cc(Cl)cc4Cl)C(=O)C3)c2)c1)OCC [(216)] | 432 | 546 | –
CCOP(=O)(CCCOc1cc(OCCCP(=O)(OCC)OCC)cc(C(=O)NC2=NN(c3c(Cl)cc(Cl)cc3Cl)C(=O)C2)c1)OCC [(209)] | 436 | 540 | –
CCCCOP(=O)(CCCOc1cc(OCCCP(=O)(OCCCC)OCCCC)cc(C(=O)Nc2cccc(C(=O)NC3=NN(c4c(C)cc(C)cc4Cl)C(=O)C3)c2)c1)OCCCC [(261)] | 440 | 535 | –
CCCCC(CC)COP(=O)(CCCOc1cccc(C(=O)Nc2cccc(C(=O)NC3=NN(c4c(Cl)cc(OC)cc4Cl)C(=O)C3)c2)c1)OCC(CC)CCCC (centres unmarked) [(267)] | 436 | 536 | –
CCCCOP(=O)(CCCOc1cccc(C(=O)Nc2cccc(NC3=NN(c4ccc(S(=O)(=O)N(CC)CC)cc4)C(=O)C3)c2)c1)OCCCC [(427)] | 431 | 538 | –
CCOP(=O)(CCCOc1ccc(C(=O)Nc2cccc(C(=O)NC3=NN(c4c(Cl)cc(Cl)cc4Cl)C(=O)C3)c2)cc1)OCC [(206)] | 434 | 542 | –
CCOP(=O)(Cc1ccc(NC(=O)CC(=O)c2ccccc2)cc1)OCC [(102)] | – | – | 438
CCOP(=O)(CCCOc1cccc(C(=O)Nc2cccc(C(=O)NC3=NN(c4ccccc4)C(=O)C3)c2)c1)OCC [(223)] | 440 | 534 | –
CCOP(=O)(CCCOc1cccc(NC2=NN(c3cccc(Cl)c3)C(=O)C2)c1)OCC [(402)] | 430 | 534 | –

SMILES | Abs.max., first of two maxima (subsidiary maximum) [nm] | Abs.max., second of two maxima (absorption maximum) [nm] | Abs.max. (single maximum) [nm]
CCOP(=O)(CCCOc1ccc(C(=O)NC2=NN(c3c(Cl)cc(Cl)cc3Cl)C(=O)C2)cc1)OCC [(204)] | 434 | 534 | –
CCOP(=O)(CCCOc1cccc(C(=O)Nc2ccc(C(=O)NC3=NN(c4c(Cl)cc(Cl)cc4Cl)C(=O)C3)cc2)c1)OCC [(201)] | 432 | 542 | –
CCOP(=O)(CC(=O)Nc1cccc(NC(=O)CC(=O)c2ccccc2)c1)OCC [(106)] | – | – | 442
CCCCOP(=O)(CCCc1ccc(NC(=O)CC(=O)c2ccccc2)cc1)OCCCC [(124)] | – | – | 436
CCCCOP(=O)(CCCOc1cccc(C(=O)Nc2cccc(NC3=NN(c4c(Cl)cc(Cl)cc4Cl)C(=O)C3)c2)c1)OCCCC [(419)] | 427 | 532 | –
CCCCOP(=O)(CCCOc1cc(OCCCP(=O)(OCCCC)OCCCC)cc(C(=O)Nc2cccc(C(=O)NC3=NN(c4c(C)cc(OC)cc4Cl)C(=O)C3)c2)c1)OCCCC [(260)] | 440 | 535 | –
CCCCOP(=O)(CCCOc1cccc(C(=O)Nc2cccc(NC3=NN(c4ccc(S(C)(=O)=O)cc4)C(=O)C3)c2)c1)OCCCC [(429)] | 430 | 538 | –
CCCCC(CC)COP(=O)(CCCOc1cc(OCCCP(=O)(OCC(CC)CCCC)OCC(CC)CCCC)cc(C(=O)Nc2cccc(C(=O)NC3=NN(c4ccccc4)C(=O)C3)c2)c1)OCC(CC)CCCC (centres unmarked) [(235)] | 440 | 532 | –
CCOP(=O)(CCCOc1cccc(C(=O)NC2=NN(c3c(Cl)cc(Cl)cc3Cl)C(=O)C2)c1)OCC [(202)] | 434 | 535 | –
CCCCOP(=O)(CCCOc1cccc(C(=O)Nc2ccc(NC3=NN(c4ccccc4)C(=O)C3)cc2)c1)OCCCC [(417)] | 428 | 530 | –
COc1ccc(C(=O)CC(=O)Nc2ccc(OP(=O)(Oc3ccccc3)C(C)(C)C)cc2)cc1 (centres unmarked) [(130)] | – | – | 437
CCCCC(CC)COP(=O)(CCCOc1cccc(C(=O)Nc2cccc(C(=O)NC3=NN(c4c(C)cc(C)cc4Cl)C(=O)C3)c2)c1)OCC(CC)CCCC (centres unmarked) [(262)] | 440 | 536 | –
CCOP(=O)(CCCOc1cc(OCCCP(=O)(OCC)OCC)cc(C(=O)Nc2cccc(C(=O)NC3=NN(c4ccccc4)C(=O)C3)c2)c1)OCC [(228)] | 438 | 533 | –
CCCCOP(=O)(CCCOc1cc(OCCCP(=O)(OCCCC)OCCCC)cc(C(=O)Nc2cccc(C(=O)NC3=NN(c4ccccc4)C(=O)C3)c2)c1)OCCCC [(229)] | 440 | 532 | –
CC(C)OP(=O)(CCCCCOc1cccc(C(=O)Nc2cccc(C(=O)NC3=NN(c4ccccc4)C(=O)C3)c2)c1)OC(C)C [(246)] | 440 | 532 | –
CCCCOP(=O)(CCCOc1cccc(C(=O)NC2=NN(c3c(Cl)cc(Cl)cc3Cl)C(=O)C2)c1)OCCCC [(237)] | 432 | 536 | –
CCCCOP(=O)(CCCOc1cc(OCCCP(=O)(OCCCC)OCCCC)cc(C(=O)NC2=NN(c3c(C)c(Cl)c(OC)c(Cl)c3Cl)C(=O)C2)c1)OCCCC [(254)] | 438 | 540 | –
CCCCOP(=O)(CCCOc1cc(OCCCP(=O)(OCCCC)OCCCC)cc(C(=O)Nc2cccc(NC3=NN(c4ccc(S(C)(=O)=O)cc4)C(=O)C3)c2)c1)OCCCC [(430)] | 430 | 540 | –
CCCCOP(=O)(Cc1ccc(CP(=O)(OCCCC)OCCCC)c(NC(=O)c2ccc(C)c(NC(=O)CC(=O)c3ccccc3Cl)c2)c1)OCCCC [(143)] | – | – | 440
CCCCOP(=O)(CCCOc1cccc(C(=O)Nc2c(C)cc(C)c(N3N=C(Nc4ccc(Cl)cc4)CC3=O)c2C)c1)OCCCC [(426)] | 430 | 528 | –
